Source: publication PMC3149649, “Evidence for a Two-Metal-Ion Mechanism in the Cytidyltransferase KdsB, an Enzyme Involved in Lipopolysaccharide Biosynthesis” (PLoS ONE, 2011)

Columns and labels:
[1] = biological target: T1, AA-LCKS (LPS-specific CMP-Kdo synthetase, KdsB) (Aquifex aeolicus, UniProt O66914); assay: X-ray crystal structure, […] Å; assay type: binding; conditions: co-crystallised with 1 mM CTP; two Mg2+ (Mg-A, Mg-B) in active site; pH 7.5; 19°C
T1 construct: recombinant from plasmid pT7-kdsB in E. coli BL21-CodonPlus(DE3)-RIL; no tag mentioned; monomer 27 kDa, gel filtration 53 kDa, homodimer

[2] = biological target: T1, AA-LCKS (LPS-specific CMP-Kdo synthetase, KdsB); assay: discontinuous Kdo activation assay, CTP replaced by UTP; assay type: biochemical; conditions: co-substrate Kdo; glycine-NaOH pH 9.0 or HEPES-NaOH pH 7.5; 80°C

T1 sequence (O66914 whole entry): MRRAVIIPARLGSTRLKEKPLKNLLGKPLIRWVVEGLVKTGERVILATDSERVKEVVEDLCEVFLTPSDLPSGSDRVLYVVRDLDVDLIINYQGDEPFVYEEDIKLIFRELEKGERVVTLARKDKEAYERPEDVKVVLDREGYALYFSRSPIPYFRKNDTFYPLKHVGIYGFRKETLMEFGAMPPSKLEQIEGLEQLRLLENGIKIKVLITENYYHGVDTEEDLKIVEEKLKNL

SMILES: Nc1ccn([C@@H]2O[C@H](COP(=O)(O)OP(=O)(O)OP(=O)(O)O)[C@@H](O)[C@H]2O)c(=O)n1 [CTP]
- X-ray crystal structure, 2.10 Å [1]: The CTP substrate is bound to the N-terminal domain in each molecule of AA-LCKS

SMILES: O=c1ccn([C@@H]2O[C@H](COP(=O)(O)OP(=O)(O)OP(=O)(O)O)[C@@H](O)[C@H]2O)c(=O)[nH]1 [UTP]
- discontinuous Kdo activation assay, CTP replaced by UTP [2]: AA-LCKS was able to utilize UTP for Kdo activation but not ATP or GTP
